In patent US20250049748A1, “ANALOGS OF 4-BROMO-2,5-DIMETHOXYPHENETHYLAMINE” (Terran Biosciences Inc., priority 2021, published 2025):
“And” between values parts separate entries of the source, which are not always exact repeats. Identical values can stand only once.

Assay: Pharmacokinetic study in rats: plasma 2C-B after IV/PO 2C-B or PO 2C-B prodrugs
Details: for Tlast / AUC0-inf / AUC0-last / Cmax / T1/2 / AUC(0-t) / half-life / Tmax: analyte 2C-B in plasma; for AUC(0-t): AUC0-last
[1] = 2C-B dosed IV 1 mg/kg, male SD rats, individual animals, 1 mg/kg
[2] = 2C-B dosed oral 5 mg/kg, male SD rats, individual animals, 5 mg/kg
[3] = 2C-B dosed oral 10 mg/kg, male SD rats, individual animals, 10 mg/kg
[4] = male, Sprague-Dawley, rat, plasma, po, 5 mg/kg, 2C-B dosed oral 5 mg/kg, male SD rats, mean
[5] = oral dosing of 2C-B prodrug, rat, time 0.500 h, individual animal
[6] = oral dosing of 2C-B prodrug, rat, time 0.500 h, mean
[7] = oral dosing of 2C-B prodrug, rat, time 1.00 h, individual animal
[8] = oral dosing of 2C-B prodrug, rat, time 1.00 h, mean
[9] = oral dosing of 2C-B prodrug, rat, time 2.00 h, individual animal
[10] = oral dosing of 2C-B prodrug, rat, time 2.00 h, mean
[11] = oral dosing of 2C-B prodrug, rat, time 4.00 h, individual animal
[12] = oral dosing of 2C-B prodrug, rat, time 4.00 h, mean
[13] = oral dosing of 2C-B prodrug, rat, time 7.00 h, individual animal
[14] = oral dosing of 2C-B prodrug, rat, time 7.00 h, mean
[15] = oral dosing of 2C-B prodrug, rat, time 24.0 h, individual animal
[16] = oral dosing of 2C-B prodrug, rat, time 24.0 h, mean

COc1cc(CCN)c(OC)cc1Br [Example 2C-B, 4-bromo-2,5-dimethoxyphenethylamine]
Tlast (2C-B dosed IV 1 mg/kg, male SD rats, Mean* row (median calculated for Tlast)): 2 h | Tlast (2C-B dosed IV 1 mg/kg, male SD rats, individual animals): 2 h | AUC0-inf [1]: 72.0 ng·h/mL and 57.8 ng·h/mL | AUC0-last [1]: 71.0 ng·h/mL and 56.8 ng·h/mL | Cmax [1]: 85.0 ng/mL and 68.8 ng/mL | T1/2 [1]: 20.3 min and 22.2 min | AUC0-inf [2]: 92.0 ng·h/mL and 115 ng·h/mL and 193 ng·h/mL | AUC0-last [2]: 69.0 ng·h/mL and 103 ng·h/mL and 159 ng·h/mL | Cmax [2]: 29.5 ng/mL and 53.5 ng/mL | T1/2 [2]: 251 min and 454 min and 732 min | Tlast [2]: 7.00 h and 24.0 h (2×) | Tlast (2C-B dosed oral 5 mg/kg, male SD rats, mean): 18.3 h | Tlast (2C-B dosed oral 10 mg/kg, male SD rats, Mean* row (median calculated for Tlast)): 7.0 h | AUC0-inf [3]: 66.8 ng·h/mL and 26.1 ng·h/mL | AUC0-last [3]: 40.9 ng·h/mL and 64.3 ng·h/mL and 23.8 ng·h/mL | Cmax [3]: 29.4 ng/mL and 37.9 ng/mL and 11.3 ng/mL | T1/2 [3]: 134 min | Tlast [3]: 2 h and 7 h (2×) | AUC0-inf (male, Sprague-Dawley, rat, plasma, iv, 1 mg/kg, AUC0-inf, 2C-B dosed IV 1 mg/kg, male SD rats, individual animals): 68.6 ng·h/mL | AUC0-inf (male, Sprague-Dawley, rat, plasma, iv, 1 mg/kg, AUC0-inf, 2C-B dosed IV 1 mg/kg, male SD rats, mean of 3 animals): 66.1 ng·h/mL | AUC(0-t) (male, Sprague-Dawley, rat, plasma, iv, 1 mg/kg, 2C-B dosed IV 1 mg/kg, male SD rats, individual animals): 65.6 ng·h/mL | AUC(0-t) (male, Sprague-Dawley, rat, plasma, iv, 1 mg/kg, 2C-B dosed IV 1 mg/kg, male SD rats, mean of 3 animals): 64.5 ng·h/mL | Cmax (male, Sprague-Dawley, rat, plasma, iv, 1 mg/kg, Cmax, 2C-B dosed IV 1 mg/kg, male SD rats, individual animals): 72 ng/mL | Cmax (male, Sprague-Dawley, rat, plasma, iv, 1 mg/kg, Cmax, 2C-B dosed IV 1 mg/kg, male SD rats, mean of 3 animals): 75.3 ng/mL | half-life (male, Sprague-Dawley, rat, plasma, iv, 1 mg/kg, T1/2, 2C-B dosed IV 1 mg/kg, male SD rats, individual animals): 27.3 min | half-life (male, Sprague-Dawley, rat, plasma, iv, 1 mg/kg, T1/2, 2C-B dosed IV 1 mg/kg, male SD rats, mean of 3 animals): 23.3 min | AUC0-inf (male, Sprague-Dawley, rat, plasma, po, 5 mg/kg, AUC0-inf, 2C-B dosed oral 5 mg/kg, male SD rats, mean): 133 ng·h/mL | AUC(0-t) [4]: 110 ng·h/mL | Cmax (male, Sprague-Dawley, rat, plasma, po, 5 mg/kg, Cmax, 2C-B dosed oral 5 mg/kg, male SD rats, individual animals): 30.1 ng/mL | Cmax (male, Sprague-Dawley, rat, plasma, po, 5 mg/kg, Cmax, 2C-B dosed oral 5 mg/kg, male SD rats, mean): 37.7 ng/mL | half-life (male, Sprague-Dawley, rat, plasma, po, 5 mg/kg, T1/2, 2C-B dosed oral 5 mg/kg, male SD rats, mean): 479 min | Tmax (male, Sprague-Dawley, rat, plasma, po, 5 mg/kg, 2C-B dosed oral 5 mg/kg, male SD rats, individual animals): 30 min | Tmax [4]: 30 min | AUC0-inf (male, Sprague-Dawley, rat, plasma, po, 10 mg/kg, AUC0-inf, 2C-B dosed oral 10 mg/kg, male SD rats, mean): 46.5 ng·h/mL | AUC(0-t) (male, Sprague-Dawley, rat, plasma, po, 10 mg/kg, 2C-B dosed oral 10 mg/kg, male SD rats, mean): 43 ng·h/mL | Cmax (male, Sprague-Dawley, rat, plasma, po, 10 mg/kg, Cmax, 2C-B dosed oral 10 mg/kg, male SD rats, mean): 26.2 ng/mL | half-life (male, Sprague-Dawley, rat, plasma, po, 10 mg/kg, T1/2, 2C-B dosed oral 10 mg/kg, male SD rats, individual animals): 99 min | half-life (male, Sprague-Dawley, rat, plasma, po, 10 mg/kg, T1/2, 2C-B dosed oral 10 mg/kg, male SD rats, mean): 116 min | Tmax (male, Sprague-Dawley, rat, plasma, po, 10 mg/kg, 2C-B dosed oral 10 mg/kg, male SD rats, Mean* row (median calculated for Tmax)): 30 min | Tmax (male, Sprague-Dawley, rat, plasma, po, 10 mg/kg, 2C-B dosed oral 10 mg/kg, male SD rats, individual animals): 60 min

COc1cc(CCNC(=O)C(F)(F)F)c(OC)cc1Br [Example 5, N-(4-bromo-2,5-dimethoxyphenethyl)-2,2,2-trifluoroacetamide]
Plasma Concentrations of metabolite 2C-B Following Oral Dosing [5]: BLQ (BLQ: Below Lower Limit of Quanification (0.5 ng/mL)) | Plasma Concentrations of metabolite 2C-B Following Oral Dosing [6]: BLQ (BLQ: Below Lower Limit of Quanification (0.5 ng/mL)) | Plasma Concentrations of metabolite 2C-B Following Oral Dosing [7]: BLQ (BLQ: Below Lower Limit of Quanification (0.5 ng/mL)) | Plasma Concentrations of metabolite 2C-B Following Oral Dosing [8]: BLQ (BLQ: Below Lower Limit of Quanification (0.5 ng/mL)) | Plasma Concentrations of metabolite 2C-B Following Oral Dosing [9]: BLQ (BLQ: Below Lower Limit of Quanification (0.5 ng/mL)) | Plasma Concentrations of metabolite 2C-B Following Oral Dosing [10]: BLQ (BLQ: Below Lower Limit of Quanification (0.5 ng/mL)) | Plasma Concentrations of metabolite 2C-B Following Oral Dosing [11]: BLQ (BLQ: Below Lower Limit of Quanification (0.5 ng/mL)) | Plasma Concentrations of metabolite 2C-B Following Oral Dosing [12]: BLQ (BLQ: Below Lower Limit of Quanification (0.5 ng/mL)) | Plasma Concentrations of metabolite 2C-B Following Oral Dosing [13]: BLQ (BLQ: Below Lower Limit of Quanification (0.5 ng/mL)) | Plasma Concentrations of metabolite 2C-B Following Oral Dosing [14]: BLQ (BLQ: Below Lower Limit of Quanification (0.5 ng/mL)) | Plasma Concentrations of metabolite 2C-B Following Oral Dosing [15]: BLQ (BLQ: Below Lower Limit of Quanification (0.5 ng/mL)) | Plasma Concentrations of metabolite 2C-B Following Oral Dosing [16]: BLQ (BLQ: Below Lower Limit of Quanification (0.5 ng/mL))

COc1cc(CCNC(C)=O)c(OC)cc1Br [Example 4, N-(4-bromo-2,5-dimethoxyphenethyl)acetamide]
Plasma Concentrations of metabolite 2C-B Following Oral Dosing (prodrug oral 10 mg/kg, male SD rats, time 0.500 h, individual animals): BLQ (BLQ: Below Lower Limit of Quanification (0.5 ng/mL)) | Plasma Concentrations of metabolite 2C-B Following Oral Dosing (prodrug oral 10 mg/kg, male SD rats, time 0.500 h, mean): BLQ (BLQ: Below Lower Limit of Quanification (0.5 ng/mL)) | Plasma Concentrations of metabolite 2C-B Following Oral Dosing (prodrug oral 10 mg/kg, male SD rats, time 1.00 h, individual animals): BLQ (BLQ: Below Lower Limit of Quanification (0.5 ng/mL)) | Plasma Concentrations of metabolite 2C-B Following Oral Dosing (prodrug oral 10 mg/kg, male SD rats, time 1.00 h, mean): BLQ (BLQ: Below Lower Limit of Quanification (0.5 ng/mL)) | Plasma Concentrations of metabolite 2C-B Following Oral Dosing (prodrug oral 10 mg/kg, male SD rats, time 2.00 h, individual animals): BLQ (BLQ: Below Lower Limit of Quanification (0.5 ng/mL)) | Plasma Concentrations of metabolite 2C-B Following Oral Dosing (prodrug oral 10 mg/kg, male SD rats, time 2.00 h, mean): BLQ (BLQ: Below Lower Limit of Quanification (0.5 ng/mL)) | Plasma Concentrations of metabolite 2C-B Following Oral Dosing (prodrug oral 10 mg/kg, male SD rats, time 4.00 h, individual animals): BLQ (BLQ: Below Lower Limit of Quanification (0.5 ng/mL)) | Plasma Concentrations of metabolite 2C-B Following Oral Dosing (prodrug oral 10 mg/kg, male SD rats, time 4.00 h, mean): BLQ (BLQ: Below Lower Limit of Quanification (0.5 ng/mL)) | Plasma Concentrations of metabolite 2C-B Following Oral Dosing (prodrug oral 10 mg/kg, male SD rats, time 7.00 h, individual animals): BLQ (BLQ: Below Lower Limit of Quanification (0.5 ng/mL)) | Plasma Concentrations of metabolite 2C-B Following Oral Dosing (prodrug oral 10 mg/kg, male SD rats, time 7.00 h, mean): BLQ (BLQ: Below Lower Limit of Quanification (0.5 ng/mL)) | Plasma Concentrations of metabolite 2C-B Following Oral Dosing (prodrug oral 10 mg/kg, male SD rats, time 24.0 h, individual animals): BLQ (BLQ: Below Lower Limit of Quanification (0.5 ng/mL)) | Plasma Concentrations of metabolite 2C-B Following Oral Dosing (prodrug oral 10 mg/kg, male SD rats, time 24.0 h, mean): BLQ (BLQ: Below Lower Limit of Quanification (0.5 ng/mL))

CCOC(=O)C1=C(C(=O)NCCc2cc(OC)c(Br)cc2OC)CCC1 [Example 36, Ethyl 2-((4-bromo-2,5-dimethoxyphenethyl)carbamoyl)cyclopent-1-ene-1-carboxylate]
Plasma Concentrations of metabolite 2C-B Following Oral Dosing [5]: BLQ (BLQ: Below Lower Limit of Quanification (0.5 ng/mL)) | Plasma Concentrations of metabolite 2C-B Following Oral Dosing [6]: BLQ (BLQ: Below Lower Limit of Quanification (0.5 ng/mL)) | Plasma Concentrations of metabolite 2C-B Following Oral Dosing [7]: BLQ (BLQ: Below Lower Limit of Quanification (0.5 ng/mL)) | Plasma Concentrations of metabolite 2C-B Following Oral Dosing [8]: BLQ (BLQ: Below Lower Limit of Quanification (0.5 ng/mL)) | Plasma Concentrations of metabolite 2C-B Following Oral Dosing [9]: BLQ (BLQ: Below Lower Limit of Quanification (0.5 ng/mL)) | Plasma Concentrations of metabolite 2C-B Following Oral Dosing [10]: BLQ (BLQ: Below Lower Limit of Quanification (0.5 ng/mL)) | Plasma Concentrations of metabolite 2C-B Following Oral Dosing [11]: BLQ (BLQ: Below Lower Limit of Quanification (0.5 ng/mL)) | Plasma Concentrations of metabolite 2C-B Following Oral Dosing [12]: BLQ (BLQ: Below Lower Limit of Quanification (0.5 ng/mL)) | Plasma Concentrations of metabolite 2C-B Following Oral Dosing [13]: BLQ (BLQ: Below Lower Limit of Quanification (0.5 ng/mL)) | Plasma Concentrations of metabolite 2C-B Following Oral Dosing [14]: BLQ (BLQ: Below Lower Limit of Quanification (0.5 ng/mL)) | Plasma Concentrations of metabolite 2C-B Following Oral Dosing [15]: BLQ (BLQ: Below Lower Limit of Quanification (0.5 ng/mL)) | Plasma Concentrations of metabolite 2C-B Following Oral Dosing [16]: BLQ (BLQ: Below Lower Limit of Quanification (0.5 ng/mL))
